What was measured:
[1] = molecular target: T1, BRD4 (Homo sapiens (Human), UniProt O60885); experiment: BRD4 degradation assay in PC3 (Steap-1) prostate cancer cells, high content fluorescence imaging; format: cell-based; conditions: PC3 (Steap-1) cells, 4 hours; for DC50: BRD4 immunofluorescence, read-out: PC3 (Steap-1) EC50; for PC3 (Steap-1) Sinf (%): maximum degradation, percent change in protein level (-100% = complete loss)
Procedure: (§1) PC3 (Steap-1) prostate cancer cells: PC3 (Steap-1) prostate cancer cells (PC3 cells overexpressing the surface protein Steap-1) were seeded on day 1 at a density of 200,000 cells/mL in 45 μl/well in cell plates in a 384 well Greiner/Perkin Elmer Cell Carrier TC Treated plate (part #6007430) in Assay Medium (RPMI, 10% FBS, 2 mM Glutamax). Cells were incubated overnight at 37° C. degrees. On day 2, compounds were serially diluted 3-fold in DMSO spanning the concentrations 10 mM to 8.6 nM, in 384 well clear polypropylene plates (Greiner Cat #781201). DMSO and 10 mM of a control PROTAC (dBET1, as described in WO 2017/024317, p. 235, structure below) (control compound) were added to designated wells. Compounds and controls were diluted 50-fold (2 μl of DMSO stock into 98 μl) into Assay Medium. 5 μl of the diluted compounds was transferred to the cell plates. The final top concentration of the test compounds in the cell plates was 20 μM. Cell plates were incubated at 37° C., for 4 hours. Fixation and permeabilization were carried out using a Biotek EL406 plate washer and dispenser as follows. Cells were fixed by addition of 15 μL of 16% paraformaldehyde (Electron Microscopy Sciences #15710-S) directly to the 50 μL cell culture medium in each well using the peristaltic pump 5 μL cassette on a Biotek EL406 (final concentration of formaldehyde was 3.7% w/v). Samples were incubated 30 minutes. Well contents were aspirated and 50 μL/well of Phosphate Buffered Saline (PBS) containing 0.5% w/v bovine serum albumen, 0.5% v/v Triton X-100 (Antibody Dilution Buffer) was added to each well. Samples were incubated for 30 minutes. Well contents were aspirated and washed 3 times with 100 μL/well of PBS.
(§2) For both the PC3 and EOL-1 cell assays, immunofluorescence staining of BRD4 was carried out using a Biotek EL406 plate washer and dispenser as follows. The well supernatant was aspirated from the wells and 25 μL/well of rabbit mAb Anti-BRD4 [EPR5150(2)] abeam 128874 diluted 1:500 in Antibody Dilution Buffer is dispensed. Samples were incubated for 2 hours at room temperature. Samples were washed 4 times with 100 μL/well of PBS. 25 μL/well of secondary antibody solution (Goat Anti-Rabbit IgG, DyLight 488 Conjugated Highly Cross-adsorbed #35553 1:1000) diluted 1:1000 and Hoechst 33342 1 μg/ml diluted in Antibody Dilution Buffer) were dispensed into each well. 16 wells of the plate, which were designated as ‘no primary antibody” wells, received only Antibody Dilution Buffer (without anti-BRD4 antibody). Samples were incubated for 2 hours at room temperature. Samples were washed 3 times with 100 μL/well of PBS using a Biotek EL406. Quantitative fluorescence imaging of BRD4 was carried out using a Phenix (Perkin Elmer). Fluorescence images of the samples (Channel 1: Hoechst33342 (DNA stain); Channel 2: 488 nm (BRD4 stain)) were acquired. Channel 1 (DNA stain) was used to define the “Region of Interest” (ROI) nuclear region. Measurements of BRD4 average immunofluorescence intensity within the ROI (nuclear region), were made on a per cell basis and averaged over all the measured cells. Data analysis was carried out using Genedata Screener Software, with DMSO and “no primary antibody” samples being used to define the 0% and 100% changes in BRD4. The “Robust Fit” method was used to define the inflexion point of curve (EC50) and the plateau of the maximal effect (Sinf). The Sinf value reports degradation as percent change in protein level, so complete loss of the protein target is −100%. […]

[2] = molecular target: T1, BRD4; experiment: BRD4 degradation assay in EOL-1 cells, high content fluorescence imaging; format: cell-based; conditions: 4 hours; for DC50: BRD4 immunofluorescence, read-out: EOL-1 EC50
Procedure: as §1
EOL-1 cells: The BRD4 degradation assay was performed on EOL-1 cells using the same procedure as described above for PC3 (Steap-1) prostate cancer cells, except EOL-1 cells were seeded at 1,000,000 cells/mL. Following aspiration and washing of the well contents with 100 μL/well of PBS, 40 μL PBS plus 10% normal goat serum was added per well for 20 minutes at room temperature.
as §2

DC50 [1] [nM] | DC50 [2] [nM] | PC3 (Steap-1) Sinf (%) [1] [%] | EOL-1 Sinf (%) ([2]; maximum degradation, percent change in protein level (-100% = complete loss)) | Compound
> 20000 | > 20000 | – | – | Cc1ncsc1-c1ccc([C@]2(C)NC(C3C[C@@H](O)CN3C(=O)C(c3cc(OCCCCCNC(=O)c4cc5c(cc4CS(C)(=O)=O)-c4cn(C)c(=O)c6[nH]cc(c46)CN5c4ncc(F)cc4F)no3)C(C)C)=NC2=O)cc1 (single isomer, unassigned) [Example 1001.1]
3.3 | 0.865 | −97.2 | −96.4 | Cc1ncsc1-c1ccc([C@]2(C)NC(C3C[C@@H](O)CN3C(=O)C(c3cc(OCCCCCNC(=O)c4cc5c(cc4CS(C)(=O)=O)-c4cn(C)c(=O)c6[nH]cc(c46)CN5c4ncc(F)cc4F)no3)C(C)C)=NC2=O)cc1 (single isomer, unassigned) [Example 1001.2]
140 | > 20000 | −29.0 | – | Cc1ncsc1-c1ccc([C@]2(C)NC(C3C[C@@H](O)CN3C(=O)C(c3cc(OCCCCCNC(=O)c4cc5c(cc4CS(C)(=O)=O)-c4cn(C)c(=O)c6[nH]cc(c46)CN5c4ncc(F)cc4F)no3)C(C)C)=NC2=O)cc1 (single isomer, unassigned) [Example 1001.3]
– | > 20000 | – | – | Cc1ncsc1-c1ccc([C@]2(C)NC(C3C[C@@H](O)CN3C(=O)[C@@H](NC(=O)CCCCCCCCCCNC(=O)c3cc4c(cc3CS(C)(=O)=O)-c3cn(C)c(=O)c5[nH]cc(c35)CN4c3ncc(F)cc3F)C(C)(C)C)=NC2=O)cc1 (single isomer, unassigned) [Example 1005.1]

Source: patent US11242344B2, “(4-hydroxypyrrolidin-2-yl)-heterocyclic compounds and methods of use thereof” (Genentech, Inc., priority 2017, dated 2022)
